System: HCC1937
Assay: normalised response (% of control), CellTiter-Glo; higher = more viable cells (100 = DMSO, 0 = benzethonium chloride kill control)
Details: incubation time: 72 h
Method: (§1)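 DSRT, 72 h incubation, CellTox Green / CellTiter-Glo readout. Signal is normalised to DMSO and benzethonium chloride controls. Value is the normalised response at dose 3.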

Question: With `CO[C@@]12[C@H](COC(N)=O)C3=C(C(=O)C(C)=C(N)C3=O)N1C[C@@H]1N[C@@H]12` [Mitomycin C] (100 nM) as the compound, how does the normalised response read?
Answer: 93.9%

Question: Which normalised response does the source give for `CC1(C)CCC(c2ccc(Cl)cc2)=C(CN2CCN(c3ccc(C(=O)NS(=O)(=O)c4ccc(N[C@H](CCN5CCOCC5)CSc5ccccc5)c(S(=O)(=O)C(F)(F)F)c4)cc3)CC2)C1` [Navitoclax] (100 nM) here?
Answer: 87.9%

Question: With `CC(C)n1cnc2c(NCCc3ccc(O)cc3)nc(-c3csc4ccccc34)nc21` [StemRegenin 1] (100 nM) as the compound, how does the normalised response read?
Answer: 96.9%

System: MDA-MB-453
Assay: as above
Details: incubation time: 72 h
Method: as §1

Question: Which normalised response does the source give for `CCn1c(C(=O)N(C2CC2)C2CC2)cc2c3c(ncn3C)c(Nc3cc(C)n(C)n3)nc21` (100 nM) here?
Answer: 93.2%

Question: With `COc1ccc(S(=O)(=O)Nc2cccnc2Nc2ccc(O)cc2)cc1` [ABT-751] (100 nM) as the compound, how does the normalised response read?
Answer: 84.2%

Question: How did the normalised response turn out when `CCNC(=O)CCC/C=C\C[C@@H]1[C@@H](/C=C/[C@@H](O)CCc2ccccc2)[C@H](O)C[C@@H]1O` [Bimatoprost] (55 nM) was run?
Answer: 99.1%

Question: Which normalised response does the source give for `COc1cc(Nc2c(C#N)cnc3cc(OCCCN4CCN(C)CC4)c(OC)cc23)c(Cl)cc1Cl` [Bosutinib] (100 nM) here?
Answer: 103%

Question: How did the normalised response turn out when `CCN(CC)CCCC(C)Nc1ccnc2cc(Cl)ccc12` (centres undefined) [Chloroquine] (1000 nM) was run?
Answer: 81.3%

Question: `CC(C)(C)c1nc(-c2cccc(NS(=O)(=O)c3c(F)cccc3F)c2F)c(-c2ccnc(N)n2)s1` [Dabrafenib] (25 nM) was tested. Which normalised response did it give?
Answer: 96.7%

Question: `CO[C@@]12[C@H](COC(N)=O)C3=C(C(=O)C(C)=C(N)C3=O)N1C[C@@H]1N[C@@H]12` [Mitomycin C] (100 nM) was tested. Which normalised response did it give?
Answer: 94.1%

Question: With `CC1(C)CCC(c2ccc(Cl)cc2)=C(CN2CCN(c3ccc(C(=O)NS(=O)(=O)c4ccc(N[C@H](CCN5CCOCC5)CSc5ccccc5)c(S(=O)(=O)C(F)(F)F)c4)cc3)CC2)C1` [Navitoclax] (100 nM) as the compound, how does the normalised response read?
Answer: 87.7%

Question: For `CC(C)n1cnc2c(NCCc3ccc(O)cc3)nc(-c3csc4ccccc34)nc21` [StemRegenin 1] (100 nM), which normalised response is on record?
Answer: 93.8%

System: CAL-51
Assay: normalised response (% of control), CellTox Green; higher = less cell death (100 = DMSO, 0 = benzethonium chloride kill control)
Details: incubation time: 72 h
Summary of the method: (§2)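 Two readouts were taken after 72 h: CellTox Green fluorescence (485/520 nm) first, then CellTiter-Glo luminescence after 10 min at room temperature. Breast cancer cell lines had been seeded as 20 µl suspension into 384-well plates holding compound at 5 concentrations in 10-fold steps across a compound-specific 10,000-fold range. Each value is a normalised signal at a single concentration, with plates scaled to 0.1 % DMSO (100) and a positive kill control (0).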

Question: `CCn1c(C(=O)N(C2CC2)C2CC2)cc2c3c(ncn3C)c(Nc3cc(C)n(C)n3)nc21` (100 nM) was tested. Which normalised response did it give?
Answer: 101%

Question: Which normalised response does the source give for `COc1ccc(S(=O)(=O)Nc2cccnc2Nc2ccc(O)cc2)cc1` [ABT-751] (100 nM) here?
Answer: 98.6%

Question: With `CCNC(=O)CCC/C=C\C[C@@H]1[C@@H](/C=C/[C@@H](O)CCc2ccccc2)[C@H](O)C[C@@H]1O` [Bimatoprost] (55 nM) as the compound, how does the normalised response read?
Answer: 103%

Question: `COc1cc(Nc2c(C#N)cnc3cc(OCCCN4CCN(C)CC4)c(OC)cc23)c(Cl)cc1Cl` [Bosutinib] (100 nM) was tested. Which normalised response did it give?
Answer: 101%

Question: For `CCN(CC)CCCC(C)Nc1ccnc2cc(Cl)ccc12` (centres undefined) [Chloroquine] (1000 nM), which normalised response is on record?
Answer: 85.5%

Question: Which normalised response does the source give for `CC(C)(C)c1nc(-c2cccc(NS(=O)(=O)c3c(F)cccc3F)c2F)c(-c2ccnc(N)n2)s1` [Dabrafenib] (25 nM) here?
Answer: 110%

Question: How did the normalised response turn out when `CO[C@@]12[C@H](COC(N)=O)C3=C(C(=O)C(C)=C(N)C3=O)N1C[C@@H]1N[C@@H]12` [Mitomycin C] (100 nM) was run?
Answer: 73.6%

Question: `CC1(C)CCC(c2ccc(Cl)cc2)=C(CN2CCN(c3ccc(C(=O)NS(=O)(=O)c4ccc(N[C@H](CCN5CCOCC5)CSc5ccccc5)c(S(=O)(=O)C(F)(F)F)c4)cc3)CC2)C1` [Navitoclax] (100 nM) was tested. Which normalised response did it give?
Answer: 94%

Question: For `CC(C)n1cnc2c(NCCc3ccc(O)cc3)nc(-c3csc4ccccc34)nc21` [StemRegenin 1] (100 nM), which normalised response is on record?
Answer: 89.2%

System: HCC1143
Assay: as above
Details: incubation time: 72 h
Summary of the method: as §2

Question: Which normalised response does the source give for `CCn1c(C(=O)N(C2CC2)C2CC2)cc2c3c(ncn3C)c(Nc3cc(C)n(C)n3)nc21` (100 nM) here?
Answer: 98.8%

Question: With `COc1ccc(S(=O)(=O)Nc2cccnc2Nc2ccc(O)cc2)cc1` [ABT-751] (100 nM) as the compound, how does the normalised response read?
Answer: 69.5%

Question: `CCNC(=O)CCC/C=C\C[C@@H]1[C@@H](/C=C/[C@@H](O)CCc2ccccc2)[C@H](O)C[C@@H]1O` [Bimatoprost] (55 nM) was tested. Which normalised response did it give?
Answer: 110%

Question: How did the normalised response turn out when `COc1cc(Nc2c(C#N)cnc3cc(OCCCN4CCN(C)CC4)c(OC)cc23)c(Cl)cc1Cl` [Bosutinib] (100 nM) was run?
Answer: 76.2%

Question: `CCN(CC)CCCC(C)Nc1ccnc2cc(Cl)ccc12` (centres undefined) [Chloroquine] (1000 nM) was tested. Which normalised response did it give?
Answer: 109%

Question: For `CC(C)(C)c1nc(-c2cccc(NS(=O)(=O)c3c(F)cccc3F)c2F)c(-c2ccnc(N)n2)s1` [Dabrafenib] (25 nM), which normalised response is on record?
Answer: 107%

Question: Which normalised response does the source give for `CO[C@@]12[C@H](COC(N)=O)C3=C(C(=O)C(C)=C(N)C3=O)N1C[C@@H]1N[C@@H]12` [Mitomycin C] (100 nM) here?
Answer: 90%

Question: `CC1(C)CCC(c2ccc(Cl)cc2)=C(CN2CCN(c3ccc(C(=O)NS(=O)(=O)c4ccc(N[C@H](CCN5CCOCC5)CSc5ccccc5)c(S(=O)(=O)C(F)(F)F)c4)cc3)CC2)C1` [Navitoclax] (100 nM) was tested. Which normalised response did it give?
Answer: 92.1%

Question: `CC(C)n1cnc2c(NCCc3ccc(O)cc3)nc(-c3csc4ccccc34)nc21` [StemRegenin 1] (100 nM) was tested. Which normalised response did it give?
Answer: 96.3%

System: HCC1599
Assay: as above
Details: incubation time: 72 h
Summary of the method: as §2

Question: `CCn1c(C(=O)N(C2CC2)C2CC2)cc2c3c(ncn3C)c(Nc3cc(C)n(C)n3)nc21` (100 nM) was tested. Which normalised response did it give?
Answer: 96%

Question: For `COc1ccc(S(=O)(=O)Nc2cccnc2Nc2ccc(O)cc2)cc1` [ABT-751] (100 nM), which normalised response is on record?
Answer: 101%

Question: `CCNC(=O)CCC/C=C\C[C@@H]1[C@@H](/C=C/[C@@H](O)CCc2ccccc2)[C@H](O)C[C@@H]1O` [Bimatoprost] (55 nM) was tested. Which normalised response did it give?
Answer: 97.2%

Question: With `COc1cc(Nc2c(C#N)cnc3cc(OCCCN4CCN(C)CC4)c(OC)cc23)c(Cl)cc1Cl` [Bosutinib] (100 nM) as the compound, how does the normalised response read?
Answer: 101%

Question: `CCN(CC)CCCC(C)Nc1ccnc2cc(Cl)ccc12` (centres undefined) [Chloroquine] (1000 nM) was tested. Which normalised response did it give?
Answer: 97.9%

Question: How did the normalised response turn out when `CC(C)(C)c1nc(-c2cccc(NS(=O)(=O)c3c(F)cccc3F)c2F)c(-c2ccnc(N)n2)s1` [Dabrafenib] (25 nM) was run?
Answer: 93.3%

Question: For `CO[C@@]12[C@H](COC(N)=O)C3=C(C(=O)C(C)=C(N)C3=O)N1C[C@@H]1N[C@@H]12` [Mitomycin C] (100 nM), which normalised response is on record?
Answer: 91.5%

Question: For `CC1(C)CCC(c2ccc(Cl)cc2)=C(CN2CCN(c3ccc(C(=O)NS(=O)(=O)c4ccc(N[C@H](CCN5CCOCC5)CSc5ccccc5)c(S(=O)(=O)C(F)(F)F)c4)cc3)CC2)C1` [Navitoclax] (100 nM), which normalised response is on record?
Answer: 101%

Question: With `CC(C)n1cnc2c(NCCc3ccc(O)cc3)nc(-c3csc4ccccc34)nc21` [StemRegenin 1] (100 nM) as the compound, how does the normalised response read?
Answer: 99.5%
